Laboratory results: patent US20250074920A1, “MACROCYCLIC COMPOUNDS AND USE AS KINASE INHIBITORS” (BLOSSOMHILL THERAPEUTICS, INC., priority 2022, published 2025)

Legend:
Test in all cases: KINOMEscan kinase binding assay
[1] = test system: EGFR(L747-E749del, A750P); conditions: at 1 μM
Description: (§1) Kinase binding assays were performed at Eurofins/DiscoveRx using the general KINOMEscan Protocol (Fabian, M. A. et al., “A small molecule-kinase interaction map for clinical kinase inhibitors,” Nat. Biotechnol. 2005, 23(3):329-36). For most assays, kinase-tagged T7 phage strains were prepared in an E. coli host derived from the BL21 strain. E. coli were grown to log-phase and infected with T7 phage and incubated with shaking at 32° C. until lysis. The lysates were centrifuged and filtered to remove cell debris. The remaining kinases were produced in HEK-293 cells and subsequently tagged with DNA for qPCR detection. Streptavidin-coated magnetic beads were treated with biotinylated small molecule ligands for 30 minutes at room temperature to generate affinity resins for kinase assays. The liganded beads were blocked with excess biotin and washed with blocking buffer (SeaBlock (Pierce), 1% BSA, 0.05% Tween 20, 1 mM DTT) to remove unbound ligand and to reduce nonspecific binding. Binding reactions were assembled by combining kinases, liganded affinity beads, and test compounds in 1× binding buffer (20% SeaBlock, 0.17×PBS, 0.05% Tween 20, 6 mM DTT). All reactions were performed in polystyrene 96-well plates in a final volume of 0.135 mL. The assay plates were incubated at room temperature with shaking for 1 hour and the affinity beads were washed with wash buffer (1×PBS, 0.05% Tween 20). The beads were then re-suspended in elution buffer (1×PBS, 0.05% Tween 20, 0.5 μM non-biotinylated affinity ligand) and incubated at room temperature with shaking for 30 minutes. The kinase concentration in the eluates was measured by qPCR. Results for compounds tested in this assay at a given concentration are reported as “% Ctrl”, where lower numbers indicate stronger binding in the matrix. % Ctrl was calculated as (test compound signal-positive control signal)/(negative control signal-positive control signal)×100. Dissociation constants (Kds) for test compound-kinase interactions were calculated by measuring the amount of kinase captured on the solid support as a function of the test compound concentration.

FGFR4 = conditions: at 1 μM
Description: as §1

EPHA3 = conditions: at 1 μM
Description: as §1

KIT(V559D, T670I) = conditions: at 1 μM
Description: as §1

[2] = test system: ABL1(F317L)-phosphorylated; conditions: at 1 μM
Description: as §1

ABL1-phosphorylated = conditions: at 1 μM
Description: as §1

FLT3 = conditions: at 1 μM
Description: as §1

ITK = conditions: at 1 μM
Description: as §1

FES = conditions: at 1 μM
Description: as §1

AXL = conditions: at 1 μM
Description: as §1

DDR2 = conditions: at 1 μM
Description: as §1

FGFR3 = conditions: at 1 μM
Description: as §1

FGFR1 = conditions: at 1 μM
Description: as §1

ZAP70 = conditions: at 1 μM
Description: as §1

YES = conditions: at 1 μM
Description: as §1

FLT3(N841I) = conditions: at 1 μM
Description: as §1

DDR1 = conditions: at 1 μM
Description: as §1

BMX = conditions: at 1 μM
Description: as §1

[3] = test system: ABL1(F317I)-nonphosphorylated; conditions: at 1 μM
Description: as §1

[4] = test system: ABL1(Q252H)-nonphosphorylated; conditions: at 1 μM
Description: as §1

[5] = test system: ABL1(T315I)-phosphorylated; conditions: at 1 μM
Description: as §1

[6] = test system: ABL1(Y253F)-phosphorylated; conditions: at 1 μM
Description: as §1

[7] = test system: JAK1(JH2domain-pseudokinase)
Description: as §1

FLT1 = conditions: at 1 μM
Description: as §1

FAK = conditions: at 1 μM
Description: as §1

KIT(D816H) = conditions: at 1 μM
Description: as §1

FER = conditions: at 1 μM
Description: as §1

SYK = conditions: at 1 μM
Description: as §1

[8] = test system: ABL1(H396P)-phosphorylated; conditions: at 1 μM
Description: as §1

MET = conditions: at 1 μM
Description: as §1

RET(M918T) = conditions: at 1 μM
Description: as §1

FLT3(D835H) = conditions: at 1 μM
Description: as §1

[9] = test system: TYK2(JH1domain-catalytic)
Description: as §1

RET = conditions: at 1 μM
Description: as §1

KIT(A829P) = conditions: at 1 μM
Description: as §1

ABL2 = conditions: at 1 μM
Description: as §1

[10] = test system: ABL1(T315I)-nonphosphorylated; conditions: at 1 μM
Description: as §1

EPHB1 = conditions: at 1 μM
Description: as §1

KIT(V559D, V654A) = conditions: at 1 μM
Description: as §1

PDGFRB = conditions: at 1 μM
Description: as §1

With `Cc1cc2c([nH]1)/C=C1\C(=O)Nc3c(Cl)cc(cc31)-c1cn(C)nc1COC[C@@H](C)N(C)C2=O` [Cpd. 5, [3a(4)Z,10R]-20-chloro-6,9,10,15-tetramethyl-10,11,13,15-tetrahydro-2H-1,17-(ethanediylidene)pyrazolo[4,3-m]dipyrrolo[3,2-f:3′,4′-i][1,4]oxazacyclopentadecine-3,8(5H,9H)-dione] as the molecule, how does the “% Ctrl” value [1] read?
Its value is 74%.

And the “% Ctrl” value (FGFR4)?
The value was 88%.

What about the “% Ctrl” value (EPHA3) of the same molecule?
Its value is 79%.

And the “% Ctrl” value (KIT(V559D, T670I))?
Its value is 95%.

And the “% Ctrl” value [2]?
The value was 83%.

What about the “% Ctrl” value (ABL1-phosphorylated) of the same molecule?
The value was 79%.

What about the “% Ctrl” value (FLT3) of the same molecule?
Its value is 94%.

And the “% Ctrl” value (ITK)?
The value was 96%.

And the “% Ctrl” value (FES)?
Its value is 89%.

What about the “% Ctrl” value (AXL) of the same molecule?
The value was 86%.

And the “% Ctrl” value (DDR2)?
The value was 76%.

What about the “% Ctrl” value (FGFR3) of the same molecule?
The value was 90%.

What about the “% Ctrl” value (FGFR1) of the same molecule?
The value was 84%.

What about the “% Ctrl” value (ZAP70) of the same molecule?
The value was 63%.

And the “% Ctrl” value (YES)?
The value was 86%.

What about the “% Ctrl” value (FLT3(N841I)) of the same molecule?
The value was 86%.

And the “% Ctrl” value (DDR1)?
The value was 93%.

And the “% Ctrl” value (BMX)?
The value was 100%.

And the “% Ctrl” value [3]?
Its value is 90%.

What about the “% Ctrl” value [4] of the same molecule?
The value was 79%.

And the “% Ctrl” value [5]?
The value was 70%.

And the “% Ctrl” value [6]?
Its value is 73%.

What about the “% Ctrl” value ([7]; JAK1(JH2domain-pseudokinase), at 1 μM) of the same molecule?
The value was 0.85%.

And the Kd ([7]; read-out: JAK1(JH2 domain-pseudokinase) Kd)?
The Kd was 50 nM.

And the “% Ctrl” value (FLT1)?
The value was 93%.

And the “% Ctrl” value (FAK)?
Its value is 96%.

What about the “% Ctrl” value (KIT(D816H)) of the same molecule?
The value was 77%.

And the “% Ctrl” value (FER)?
Its value is 68%.

What about the “% Ctrl” value (SYK) of the same molecule?
The value was 90%.

And the “% Ctrl” value [8]?
Its value is 80%.

What about the “% Ctrl” value (MET) of the same molecule?
The value was 96%.

And the “% Ctrl” value (RET(M918T))?
The value was 87%.

What about the “% Ctrl” value (FLT3(D835H)) of the same molecule?
Its value is 79%.

And the “% Ctrl” value ([9]; TYK2(JH1domain-catalytic), at 1 μM)?
The value was 69%.

And the Kd ([9]; read-out: TYK2(JH1 domain-catalytic) Kd)?
The Kd was over 10 µM.

What about the “% Ctrl” value (RET) of the same molecule?
The value was 95%.

And the “% Ctrl” value (KIT(A829P))?
The value was 84%.

And the “% Ctrl” value (ABL2)?
Its value is 96%.

And the “% Ctrl” value [10]?
The value was 100%.

And the “% Ctrl” value (EPHB1)?
Its value is 92%.

And the “% Ctrl” value (KIT(V559D, V654A))?
Its value is 91%.

What about the “% Ctrl” value (PDGFRB) of the same molecule?
Its value is 100%.
